According to PMC12472597, “Pan-Amyloid Reactive Peptides p5+14 and p5R Exhibit Specific Charge-Dependent Binding to Glycosaminoglycans” (Pharmaceuticals, 2025):
Entries after “also recorded” stand apart in the source; their conditions may differ. No end group written: not given here.

Legend:
[1] = cited from earlier work
Description: The concept of pan-amyloid reactive agents is not a new one. […] The binding sites are recurring with defined periodicity, which results in Congo red birefringence when stained amyloid is viewed under cross polarized illumination,a and a red shift in the emission maximum and increase in the quantum yield when thiofl ...

[2] = clinical studies (NCT02603172); cited from earlier work
Description: The impact of accessory proteins in amyloid deposits remains unclear; however, some components have been evaluated extensively. Serum amyloid P component, for example, was thought to stabilize the amyloid pathology and render it resistant to proteolysis and immunological clearance. This hypothesis was tested using a small molecule drug (miridesap) that crosslinks SAP, thereby clearing it from amyloid deposits, potentially leading to their clearance. […] This was ...

[3] = GAG array apparent EC50, CS-AC (GAG22); format: binding; settings: biotinylated peptide, n = 4; for EC50: 1 h RT, 4PL fit
Description: (§1) One exemplar GAG from the groups of heparin, HS, CS-AC, and CS-D was chosen to assess the Ec50 (concentration at the midpoint of binding). Bound peptide fluorescence was plotted against the concentration of peptide and a sigmoidal 4PL binding curve fit to the data (Figure 6). For GAGs with high peptide binding (heparin, HS, and highly sulfated CS-D), Ec50 calculations could be performed for both biotinylated p5+14 and p5R (Figure 6A,C,D). […] The differential binding potency, despite the shared selectivity, is likely due to the higher net charge on p5+14 (+12) compared with p5R (+8).
(§2) Glycosaminoglycan (GAG) microarray binding studies were performed by Z Biotech (Z Biotech, LLC, Aurora, CO, USA). Briefly, microarrays were laid out in a 16-subarray arrangement with 47 GAG or 24 heparan sulfate (HS) binding targets per subarray. Spotted arrays were blocked at room temperature (RT) for 30 min with Glycan Array Blocking Buffer (Z Biotech, LLC, Aurora, CO, USA) before being washed. Biotinylated peptides were diluted in blocking buffer + 1% bovine serum albumin to final concentrations of 50, 10, 2, 0.4, and 0.08 µg/mL and the solutions added to the arrays for 1 h at RT. The arrays were then washed again and streptavidin-Cy3 (0.2 µg/mL) added, followed by a 1-h incubation. The fluorescence emission was quantified by scanning at 532 nm and evaluated using Mapix microarray software (Innopsys, Carbonne, France). Background control data were subtracted from binding signals before the data were averaged.
(§3) Data visualization, statistical analysis, and correlations were performed using GraphPad Prism v 9.4.1 or later. Correlations of peptide binding to microarray substrates were performed using Pearson’s correlations. Apparent affinities (Ec50) of peptides to array substrates were calculated using sigmoidal 4PL curve fitting to calculate the Ec50 in µg/mL, which was converted to molarity using the appropriate peptide molecular weight.

[4] = GAG microarray binding (47 GAGs); settings: biotinylated peptide
Description: To assess the binding selectivity of biotinylated p5+14 and p5R peptides, we used a commercial glycosaminoglycan (GAG) binding microarray (ZBiotech, CO, USA), which contains 16 subarrays each consisting of 47 differing GAGs (varying lengths, charges, and composition (Supplementary Figure S1)) plus internal controls. Increasing concentrations of each peptide were evaluated on the subarrays. The GAG arrays consisted of exemplar hyaluronic acid (HA), heparin, chondroitin sulfate A/C (CS-AC), chondroitin sulfate D (CS-D), dermatan sulfate (DS), heparan sulfate (HS with low to intermediate sulfation levels), heparan sulfate (HS with high sulfation levels), and […] (KS). Background corrected binding of peptides p5+14 and p5R, at 2 µg/mL, to each GAG is shown in Figure 4A,B (additional concentrations are shown in Supplementary Figure S2). […] For heparin and highly sulfated HS, the binding intensity closely paralleled the total negative charge for each GAG (Figure 4C).
as §2, with “The arrays were then washed again and streptavidin-Cy3 (0.2 µg/mL) added, followed by a 1-h incubation.” left out, “Background control data were subtracted from binding signals before the data were averaged.” left out
as §3, with “Correlations of peptide binding to microarray substrates were performed using Pearson’s correlations.” left out

[5] = HS array apparent Ec50, HS16; format: binding; settings: biotinylated peptide, 4PL fit, n = 6
Description: (§4) Biotinylated peptide binding to four of the HS glycans in the array were analyzed further to assess the estimated binding potency (Figure 9). […] The HS glycans used in this binding analysis contained fewer saccharide units and less total charge compared with that shown in Figure 6D, which may explain the difference in the estimated potency data.
(§5) Glycosaminoglycan (GAG) microarray binding studies were performed by Z Biotech (Z Biotech, LLC, Aurora, CO, USA). Briefly, microarrays were laid out in a 16-subarray arrangement with 47 GAG or 24 heparan sulfate (HS) binding targets per subarray. Spotted arrays were blocked at room temperature (RT) for 30 min with Glycan Array Blocking Buffer (Z Biotech, LLC, Aurora, CO, USA) before being washed. […] The fluorescence emission was quantified by scanning at 532 nm and evaluated using Mapix microarray software (Innopsys, Carbonne, France). […]
as §3, with “Correlations of peptide binding to microarray substrates were performed using Pearson’s correlations.” left out

[6] = GAG array apparent EC50, CS-D (GAG28); format: binding; settings: biotinylated peptide; for EC50: 1 h RT, 4PL fit, n = 4
Description: as §1, §2, §3

[7] = GAG array apparent EC50, HS (GAG46); format: binding; settings: biotinylated peptide, highly sulfated HS, 4PL fit, n = 4
Description: as §1
as §5, with “subarray.” for “subarray. Spotted arrays were blocked at room temperature (RT) for 30 min with Glycan Array Blocking Buffer (Z Biotech, LLC, Aurora, CO, USA) before being washed.”
as §3, with “Correlations of peptide binding to microarray substrates were performed using Pearson’s correlations.” left out

[8] = GAG array apparent EC50, heparin (GAG16); format: binding; settings: biotinylated peptide, 1 h RT, n = 4
Description: as §1
as §5, with “subarray.” for “subarray. Spotted arrays were blocked at room temperature (RT) for 30 min with Glycan Array Blocking Buffer (Z Biotech, LLC, Aurora, CO, USA) before being washed.”
as §3, with “Correlations of peptide binding to microarray substrates were performed using Pearson’s correlations.” left out

[9] = PET/CT imaging of patients with systemic amyloidosis; format: in vivo, human; settings: PET/CT at 5 h post injection
Description: Patients were imaged with p5+14 as part of the first-in-human, open label, Phase 1 study (NCT03678259). Synthesis of ^124I-labeled p5+14 has previously been reported. Briefly, lyophilized human grade peptide (Attralus, Inc., Naples, FL, USA) was radiolabeled on the day of use with iodine-124 (3D Imaging, Little Rock, AR, USA) using iodogen as the oxidant. Subjects were administered a 2 mCi dose of I-124 (<2 mg of peptide) intravenously. PET/CT images were acquired from crown to thighs at 5 h post injection, using a Siemens Biograph PET/CT (Siemens Healthineers, Malvern, PA, USA) with 5 min bed positions for the PET and a low dose CT (120 kVp, 50 effective mAs).
Data were reconstructed using a 3-dimensional ordered subset expectation maximization algorithm with attenuation and prompt gamma corrections, a 168 × 168 image matrix, and an image resolution of ~8 mm full width at half maximum. CT reconstruction utilized a medium smoothing kernel and 4 mm reconstruction increments. Patient PET/CT images were generated using Inveon Research Workplace software (Ed. 4.2 [4.2.0.15]; Siemens Preclinical Solutions).

[10] = HS array apparent Ec50, HS13; format: binding; settings: biotinylated peptide; increasing peptide concentration; n = 6
Description: as §4, §5
as §3, with “Correlations of peptide binding to microarray substrates were performed using Pearson’s correlations.” left out

[11] = HS array apparent Ec50, HS24; format: binding; settings: biotinylated peptide, 4PL fit, n = 6
Description: as §4, §5
as §3, with “Correlations of peptide binding to microarray substrates were performed using Pearson’s correlations.” left out

[12] = Heparan sulfate microarray binding (24 HS); settings: biotinylated peptide; 0.4, 2, 10 µg/mL; n = 6
Description: This array comprised 24 structurally unique synthetic HS domains that varied in length, net charge, and charge density (Supplementary Figure S3). The binding of biotinylated peptides p5+14 (Figure 7A) and p5R (Figure 7B) to the HS array was performed as above, using increasing concentrations of peptide. The intensity of binding for both peptides, based on the fluorescence intensity, was closely related to the total charge (total sulfations) of the ligand (Figure 7, shown in red).
as §5
as §3, with “Correlations of peptide binding to microarray substrates were performed using Pearson’s correlations.” left out

[13] = HS array apparent Ec50, HS22; format: binding; settings: biotinylated peptide, 4PL fit, n = 6
Description: as §4, §5
as §3, with “Correlations of peptide binding to microarray substrates were performed using Pearson’s correlations.” left out

[14] = Circular dichroism secondary structure; format: physicochemical
Description: Peptide secondary structures were analyzed by circular dichroism using an Olis RSM 1000 (On-line Instrument Systems, Inc., Bogart, GA, USA). Each study consisted of three replicates that were averaged and the dilution/background spectra subtracted. Non-biotinylated peptides were diluted to 0.05 mg/mL in phosphate buffered saline (PBS). For experiments involving the addition of enoxaparin (Amphastar Pharmaceuticals Inc., Rancho Cucamonga, CA., USA), enoxaparin was added to diluted peptide in PBS to reach a final concentration of 0–66.7 µg/mL. For experiments involving the addition of 2,2,2-trifluoroethanol (TFE) (Thermo Fisher Scientific, Waltham, MA, USA), TFE was added to diluted peptide in PBS to reach a final concentration of 0–40%.

[15] = cited from earlier work; remark: listed apart in the source
Description: Both peptides consist of a repeating heptad structure with periodic lysine (p5+14; -XXKXXXK-) or arginine (p5R; -XXRXXXR-) amino acids. […] These peptides also avidly bind other highly negatively charged linear molecules such as heparin and hypersulfated HSPG, the latter of which is associated with amyloid deposits in vivo [18, 20, 21, 22].

[16] = array in blocking buffer + 1% BSA, 0.08-50 µg/mL, streptavidin-Cy3, 532 nm, read-out: Apparent EC50
[17] = converted from µg/mL using peptide molecular weight, read-out: Apparent EC50 (Molarity)
[18] = HS array in blocking buffer + 1% BSA, 1 h RT, streptavidin-Cy3, 532 nm, read-out: Apparent Ec50
[19] = converted from µg/mL using peptide molecular weight, read-out: Apparent Ec50 (Molarity)
[20] = initial spectrum, non-biotinylated peptide 0.05 mg/mL in PBS, n = 3

Compound: Nc1c(/N=N/c2ccc(-c3ccc(/N=N/c4cc(S(=O)(=O)O)c5ccccc5c4N)cc3)cc2)cc(S(=O)(=O)O)c2ccccc12 [Congo red]
- Amyloid binding [1]: bind all types of amyloid but not in a specific way

Compound: O=C(O)[C@H]1CCCN1C(=O)CCCCC(=O)N1CCC[C@@H]1C(=O)O [miridesap]
- Removal of amyloid in patients [2]: failed to promote the meaningful removal of amyloid in patients

Compound: Cc1ccc2c(c1)sc(-c1ccc(N(C)C)cc1)[n+]2C [thioflavin T]
- Amyloid binding [1]: bind all types of amyloid but not in a specific way

Compound: GGGYSKAQKAQAKQAKQAQKAQKAQAKQAKQAQKAQKAQAKQAKQ [p5+14, 45-residue polybasic lysine heptad-repeat peptide, net charge +12]
- EC50 [3, 16]: 3.38 µg/mL
- EC50 [3, 17]: 708 nM
- Binding to CS-AC ([3]; fluorescence au vs peptide concentration): saturable binding
- GAG binding selectivity ([4]; 2 µg/mL, background corrected fluorescence, n = 4): preferential binding to heparin and highly sulfated HS GAGs; also recorded: Little to no binding to HA, CS-AC, CS-D (with singular exception), DS, and KS
- Binding to GAGs that were not heparin or HS ([4]; 2 µg/mL, n = 4): very little binding
- Affinity for heparin and HS immobilized in the arrays ([4]; compared with biotinylated p5R, GAG and HS arrays): higher affinity for both heparin and HS immobilized in the arrays
- EC50 [5, 18]: 0.668 µg/mL
- EC50 [5, 19]: 140 nM
- Reactivity with CS-D GAGs ([6]; GAG28 compared with GAG23-GAG27): abrupt intense reactivity of the peptides with GAG28, but none of the other CS GAGs (GAG23-GAG27)
- EC50 [6, 16]: 1.33 µg/mL
- EC50 [6, 17]: 280 nM
- EC50 ([7]; array in blocking buffer + 1% BSA, 0.08-50 µg/mL, 1 h RT, streptavidin-Cy3, 532 nm, read-out: Apparent EC50): 0.932 µg/mL
- EC50 [7, 17]: 196 nM
- EC50 ([8]; array in blocking buffer + 1% BSA, 0.08-50 µg/mL, streptavidin-Cy3, 532 nm, sigmoidal 4PL fit, read-out: Apparent EC50): 1.2 µg/mL
- EC50 ([8]; converted from µg/mL using peptide molecular weight, 4PL fit, read-out: Apparent EC50 (Molarity)): 251 nM
- Organ uptake in patients ([9]; 2 mCi (<2 mg of peptide) i.v., patients with systemic amyloidosis): consistent with uptake in organs and tissues clinically known or suspected of amyloid deposition
- Organ uptake in healthy subjects ([9]; 2 mCi i.v., healthy subjects): no pathologic uptake was observed
- Binding to HS13 [10]: did not reach saturation
- EC50 [11, 18]: 0.448 µg/mL
- EC50 [11, 19]: 94 nM
- HS binding pattern [12]: the binding to HS appeared to correlate precisely with the total charge of the HS
- EC50 [13, 18]: 0.473 µg/mL
- EC50 [13, 19]: 99.3 nM
- Secondary structure in solution ([14]; PBS pH 7.2): partially unfolded states in solution
- Secondary structure with low molecular weight heparin ([14]; in PBS with enoxaparin): adopt an α-helical structure
- CD large minimum [14, 20]: 208 nm
- CD smaller minimum [14, 20]: 222 nm
- Ratio of the CD minima with enoxaparin ([14]; non-biotinylated peptide 0.05 mg/mL in PBS, higher concentrations of enoxaparin (0-66.7 µg/mL), n = 3): ≥ 1
- Ratio of the CD minima with TFE ([14]; non-biotinylated peptide 0.05 mg/mL in PBS, increasing TFE (0-40%), n = 3): ≥ 1

Compound: GGGYSRAQRAQARQARQAQRAQRAQARQARQ [p5R]
- In vivo biodistribution vs basic fibroblast growth factor ([15]; ^125I-labeled): differed dramatically from that of the quintessential HSPG binding protein, basic fibroblast growth factor

Compound: bFGF: prototypical HS binding peptide [reference compound]
- Binding in healthy tissues ([15]; healthy liver tissue and renal glomerulae): strong reactivity with healthy liver tissue and renal glomerulae

Compound: serum amyloid P-component: biological reagent that exhibits pan-amyloid reactivity
- Amyloid binding [1]: exhibit pan-amyloid reactivity
